Assay results as given in patent US20060094787A1, “Pharmaceutical composition comprising 5-methyl-2-2'(chloro-6'-fluoroanilino) phenylacetic acid” (priority 2003, published 2006).

Test: Solubility of drug substance in water / suspension
Format: physicochemical

water solubility of drug substance: relatively water insoluble
Compound: Cc1ccc(Nc2c(F)cccc2Cl)c(CC(=O)O)c1 [5-methyl-2-(2′-chloro-6′-fluoroanilino)phenylacetic acid]
